The values below come from article PMC7720687 (ERJ Open Research, 2020).

Experiment [1] deals with T1, epithelial sodium channel (ENaC) (Mus musculus, UniProt Q61180+Q9WU38+Q9WU39).
T1 sequence (Q61180 1-699): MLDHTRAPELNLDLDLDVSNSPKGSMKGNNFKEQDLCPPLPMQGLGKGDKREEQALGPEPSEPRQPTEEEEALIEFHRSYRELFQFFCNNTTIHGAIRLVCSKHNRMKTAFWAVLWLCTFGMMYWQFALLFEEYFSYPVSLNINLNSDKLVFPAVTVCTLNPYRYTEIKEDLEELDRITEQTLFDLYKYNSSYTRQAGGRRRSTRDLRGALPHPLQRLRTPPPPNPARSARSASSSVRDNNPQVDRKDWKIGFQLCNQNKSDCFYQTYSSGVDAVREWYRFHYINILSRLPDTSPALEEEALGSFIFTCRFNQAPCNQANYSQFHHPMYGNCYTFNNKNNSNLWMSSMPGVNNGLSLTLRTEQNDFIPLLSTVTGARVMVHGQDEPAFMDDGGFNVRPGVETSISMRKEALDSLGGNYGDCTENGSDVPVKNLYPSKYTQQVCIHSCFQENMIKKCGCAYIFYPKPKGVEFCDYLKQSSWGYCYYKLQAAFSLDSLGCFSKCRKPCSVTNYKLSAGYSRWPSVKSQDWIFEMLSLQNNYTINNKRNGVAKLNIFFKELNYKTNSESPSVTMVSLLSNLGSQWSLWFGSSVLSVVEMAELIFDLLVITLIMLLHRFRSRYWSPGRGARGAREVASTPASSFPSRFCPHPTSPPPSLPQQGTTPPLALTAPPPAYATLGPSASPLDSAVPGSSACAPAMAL
T1 sequence (Q9WU38 1-638): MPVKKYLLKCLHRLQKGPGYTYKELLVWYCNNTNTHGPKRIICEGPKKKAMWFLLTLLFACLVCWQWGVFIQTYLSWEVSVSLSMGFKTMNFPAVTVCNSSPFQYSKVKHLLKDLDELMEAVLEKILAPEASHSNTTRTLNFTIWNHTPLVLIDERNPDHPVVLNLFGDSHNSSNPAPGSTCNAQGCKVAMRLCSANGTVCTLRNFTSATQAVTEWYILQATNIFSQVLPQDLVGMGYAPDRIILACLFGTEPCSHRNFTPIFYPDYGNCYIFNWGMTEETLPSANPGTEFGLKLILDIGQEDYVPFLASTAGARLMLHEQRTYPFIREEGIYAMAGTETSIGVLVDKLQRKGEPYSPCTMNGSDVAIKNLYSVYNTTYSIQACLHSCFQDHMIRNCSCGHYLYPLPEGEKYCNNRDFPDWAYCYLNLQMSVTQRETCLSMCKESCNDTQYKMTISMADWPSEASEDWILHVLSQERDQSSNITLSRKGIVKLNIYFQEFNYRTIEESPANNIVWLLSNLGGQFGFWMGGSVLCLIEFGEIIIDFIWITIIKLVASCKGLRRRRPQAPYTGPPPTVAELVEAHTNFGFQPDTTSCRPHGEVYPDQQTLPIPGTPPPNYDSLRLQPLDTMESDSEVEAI
T1 sequence (Q9WU39 1-655): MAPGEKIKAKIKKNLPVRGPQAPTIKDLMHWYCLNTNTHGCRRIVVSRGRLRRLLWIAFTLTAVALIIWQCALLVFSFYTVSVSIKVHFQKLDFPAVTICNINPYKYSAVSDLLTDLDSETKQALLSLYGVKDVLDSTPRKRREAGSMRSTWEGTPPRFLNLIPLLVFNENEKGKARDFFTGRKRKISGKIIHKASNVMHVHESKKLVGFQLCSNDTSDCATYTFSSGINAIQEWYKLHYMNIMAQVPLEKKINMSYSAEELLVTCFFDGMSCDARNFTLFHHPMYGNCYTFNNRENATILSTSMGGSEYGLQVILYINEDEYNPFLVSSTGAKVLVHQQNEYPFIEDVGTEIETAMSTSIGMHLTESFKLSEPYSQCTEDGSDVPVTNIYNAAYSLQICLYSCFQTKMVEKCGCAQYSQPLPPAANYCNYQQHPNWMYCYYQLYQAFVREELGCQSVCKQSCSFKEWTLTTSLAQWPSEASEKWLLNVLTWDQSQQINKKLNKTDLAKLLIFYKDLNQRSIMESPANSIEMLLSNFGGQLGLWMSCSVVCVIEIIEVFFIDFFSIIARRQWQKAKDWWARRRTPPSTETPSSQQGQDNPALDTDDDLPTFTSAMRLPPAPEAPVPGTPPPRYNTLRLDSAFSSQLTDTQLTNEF
In words: Ussing chamber, amiloride-sensitive short-circuit current in M1 monolayers. It counts as cell-based.

Experiment [2] concerns the target T2, epithelial sodium channel (ENaC) (Homo sapiens, UniProt P37088+P51168+P51170).
T2 sequence (P37088 1-669): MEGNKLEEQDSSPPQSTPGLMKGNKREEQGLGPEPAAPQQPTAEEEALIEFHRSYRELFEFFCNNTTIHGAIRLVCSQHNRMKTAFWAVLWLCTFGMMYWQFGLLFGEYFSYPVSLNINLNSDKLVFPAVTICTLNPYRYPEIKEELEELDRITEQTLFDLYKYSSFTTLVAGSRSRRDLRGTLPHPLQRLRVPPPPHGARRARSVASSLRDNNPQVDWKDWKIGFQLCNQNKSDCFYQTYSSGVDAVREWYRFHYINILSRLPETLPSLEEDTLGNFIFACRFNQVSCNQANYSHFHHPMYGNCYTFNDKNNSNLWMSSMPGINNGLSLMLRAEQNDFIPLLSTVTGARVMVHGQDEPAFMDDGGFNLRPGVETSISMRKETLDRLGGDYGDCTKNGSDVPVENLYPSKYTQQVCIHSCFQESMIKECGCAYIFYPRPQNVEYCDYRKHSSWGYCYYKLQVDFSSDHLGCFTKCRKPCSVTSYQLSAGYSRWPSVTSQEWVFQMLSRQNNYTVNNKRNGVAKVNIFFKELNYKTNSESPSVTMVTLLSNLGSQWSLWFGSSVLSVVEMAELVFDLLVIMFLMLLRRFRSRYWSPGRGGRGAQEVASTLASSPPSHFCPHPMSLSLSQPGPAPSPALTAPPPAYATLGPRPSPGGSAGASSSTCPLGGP
T2 sequence (P51168 1-640): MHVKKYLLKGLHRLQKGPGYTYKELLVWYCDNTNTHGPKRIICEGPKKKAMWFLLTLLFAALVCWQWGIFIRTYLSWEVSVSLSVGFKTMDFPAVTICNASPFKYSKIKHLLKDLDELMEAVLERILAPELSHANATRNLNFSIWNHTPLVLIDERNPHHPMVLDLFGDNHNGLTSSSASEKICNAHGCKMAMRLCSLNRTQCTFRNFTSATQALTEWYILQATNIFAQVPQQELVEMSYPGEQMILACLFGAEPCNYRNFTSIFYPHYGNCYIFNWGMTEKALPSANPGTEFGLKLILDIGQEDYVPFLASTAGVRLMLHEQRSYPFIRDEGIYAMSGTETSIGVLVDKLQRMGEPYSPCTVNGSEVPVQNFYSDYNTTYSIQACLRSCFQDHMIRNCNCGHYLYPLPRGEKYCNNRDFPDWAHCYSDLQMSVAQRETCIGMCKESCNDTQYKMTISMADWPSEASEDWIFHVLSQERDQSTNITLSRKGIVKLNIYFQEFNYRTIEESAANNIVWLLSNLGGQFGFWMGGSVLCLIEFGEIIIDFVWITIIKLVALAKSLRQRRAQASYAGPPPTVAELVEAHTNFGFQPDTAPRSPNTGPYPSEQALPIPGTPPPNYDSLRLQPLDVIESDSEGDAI
T2 sequence (P51170 1-649): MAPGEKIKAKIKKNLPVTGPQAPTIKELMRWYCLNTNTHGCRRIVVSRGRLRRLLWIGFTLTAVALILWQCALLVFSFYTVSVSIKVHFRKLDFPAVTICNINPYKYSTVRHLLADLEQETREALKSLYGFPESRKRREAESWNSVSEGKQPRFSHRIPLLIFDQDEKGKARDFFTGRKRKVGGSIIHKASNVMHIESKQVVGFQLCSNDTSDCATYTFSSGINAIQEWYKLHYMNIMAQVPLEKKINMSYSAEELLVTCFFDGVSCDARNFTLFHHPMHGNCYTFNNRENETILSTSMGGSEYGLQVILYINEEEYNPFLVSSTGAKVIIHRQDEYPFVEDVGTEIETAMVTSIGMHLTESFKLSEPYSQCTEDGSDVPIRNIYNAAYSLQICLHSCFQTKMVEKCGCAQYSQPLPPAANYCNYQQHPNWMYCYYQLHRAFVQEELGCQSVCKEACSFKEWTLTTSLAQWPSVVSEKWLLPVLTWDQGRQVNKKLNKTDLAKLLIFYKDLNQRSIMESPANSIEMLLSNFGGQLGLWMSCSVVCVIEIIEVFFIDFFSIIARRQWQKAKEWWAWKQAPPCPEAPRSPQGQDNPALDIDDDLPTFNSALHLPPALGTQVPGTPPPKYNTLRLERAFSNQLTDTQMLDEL
In words: Ussing chamber, amiloride-sensitive short-circuit current in NCI-H441 monolayers. It counts as cell-based.

Usually IC50 stands for the concentration needed to halve the response being measured. The low end stands for greater potency in that assay, the high end for weaker potency in that assay.

BI 1265162: the 50% inhibitory concentration (IC50) was found to be 3 nM in experiment [1] and 8 nM in experiment [2].
